Reference: ChEMBL document CHEMBL4130616, “Bastimolide B, an Antimalarial 24-Membered Marine Macrolide Possessing a tert-Butyl Group” (J Nat Prod, 2018)

test system: Plasmodium falciparum; assay: Antimalarial activity against chloroquine-sensitive Plasmodium falciparum HB3 by pico-green dye based fluorescence assay; assay type: functional, organism-based; conditions: not given

IC50	SMILES
1.4 µM	C/C1=C/C(=O)O[C@H](C(C)(C)C)CCC[C@H](O)CCC[C@H](O)CCC[C@H](O)CCC[C@@H](O)C[C@@H](O)C[C@H](O)CCC[C@@H](O)CCC[C@@H](O)C[C@@H](O)CCCCC1 [listing 1 of 2 here]

same assay, conditions: Plasmodium falciparum, HB3

IC50	SMILES
2.3 µM	C/C1=C/C(=O)O[C@H](C(C)(C)C)CCC[C@H](O)CCC[C@H](O)CCC[C@H](O)CCC[C@@H](O)C[C@@H](O)C[C@H](O)CCC[C@@H](O)CCC[C@@H]2C[C@H](CCCCC1)OC(C)(C)O2
20 µM	C/C1=C/C(=O)O[C@H](C(C)(C)C)CCC[C@H](O)CCC[C@H](O)CCC[C@H](O)CCC[C@@H]2C[C@H](C[C@H](O)CCC[C@@H](O)CCC[C@@H](O)C[C@@H](O)CCCCC1)OC(C)(C)O2

The next lines start with the compound.

SMILES	IC50
C/C1=C/C(=O)O[C@H](CCC[C@@H](O)CCC[C@@H](O)CCC[C@@H](O)CCC[C@H](O)C(C)(C)C)C[C@@H](O)C[C@H](O)CCC[C@@H](O)CCC[C@@H](O)C[C@@H](O)CCCCC1	5.7 µM
C/C1=C/C(=O)O[C@H](C(C)(C)C)CCC[C@H](O)CCC[C@H](O)CCC[C@H](O)CCC[C@@H]2C[C@H](C[C@H](O)CCC[C@@H](O)CCC[C@@H]3C[C@H](CCCCC1)OC(C)(C)O3)OC(C)(C)O2	9.7 µM
C/C1=C/C(=O)O[C@H](C(C)(C)C)CCC[C@H](O)CCC[C@H](O)CCC[C@H](O)CCC[C@@H](O)C[C@@H](O)C[C@H](O)CCC[C@@H](O)CCC[C@@H](O)C[C@@H](O)CCCCC1 [listing 2 of 2 here]	2.6 µM
